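Five concentrations, 48 hours, 96-well plates. GI50 is the concentration that inhibits growth by half.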 Calls of active or inactive are those of the source. No stated cut-off is given here; in the data, active = GI50 up to about 1.1 µM and inactive = higher.
Tests used:
Experiment in all cases: NCI-60 cell line screen, 48 h
KM-20L2 = system: KM-20L2
M19-MEL = system: M19-MEL
XF498 = system: XF498
EKVX = system: EKVX
SR = system: SR
NCI-H23 = system: NCI-H23
SK-MEL-5 = system: SK-MEL-5
COLO 205 = system: COLO 205
SK-MEL-2 = system: SK-MEL-2
LXFL 529 = system: LXFL 529
RPMI-8226 = system: RPMI-8226
U-251 = system: U-251
SF-539 = system: SF-539
OVCAR-3 = system: OVCAR-3
SW-620 = system: SW-620
ACHN = system: ACHN
NCI-H226 = system: NCI-H226
HT-29 = system: HT-29
SNB-75 = system: SNB-75
DMS-273 = system: DMS-273
SK-MEL-28 = system: SK-MEL-28
CCRF-CEM = system: CCRF-CEM
SNB-19 = system: SNB-19
SNB-78 = system: SNB-78
DLD-1 = system: DLD-1
RXF 631 = system: RXF 631
KM12 = system: KM12
HCT-116 = system: HCT-116
OVCAR-8 = system: OVCAR-8
786-0 = system: 786-0
LOX IMVI = system: LOX IMVI
HCT-15 = system: HCT-15
A498 = system: A498
HOP-18 = system: HOP-18
UACC-62 = system: UACC-62
K562 = system: K562
SF-295 = system: SF-295
OVCAR-4 = system: OVCAR-4
HOP-62 = system: HOP-62
A549 = system: A549
MOLT-4 = system: MOLT-4
HOP-92 = system: HOP-92
IGROV-1 = system: IGROV-1
SN12C = system: SN12C
Malme-3M = system: Malme-3M
SF-268 = system: SF-268
OVCAR-5 = system: OVCAR-5
M14 = system: M14
RXF 393 = system: RXF 393
HCC 2998 = system: HCC 2998
UACC-257 = system: UACC-257
TK-10 = system: TK-10
CAKI-1 = system: CAKI-1
NCI-H460 = system: NCI-H460
NCI-H522 = system: NCI-H522
SK-OV-3 = system: SK-OV-3
UO-31 = system: UO-31
DMS-114 = system: DMS-114
HL-60 = system: HL-60

SMILES: COc1ccc2c(c1)[n+]([O-])c(/C(C)=N/NC(=O)CC#N)c[n+]2[O-]
- GI50 (KM-20L2): > 100 µM (inactive)
- GI50 (M19-MEL): > 100 µM (inactive)
- GI50 (XF498): > 100 µM (inactive)
- GI50 (EKVX): > 100 µM (inactive)
- GI50 (SR): > 100 µM (inactive)
- GI50 (NCI-H23): > 100 µM (inactive)
- GI50 (SK-MEL-5): > 100 µM (inactive)
- GI50 (COLO 205): 83.4 µM (inactive)
- GI50 (SK-MEL-2): > 100 µM (inactive)
- GI50 (LXFL 529): > 100 µM (inactive)
- GI50 (RPMI-8226): 54.7 µM (inactive)
- GI50 (U-251): > 100 µM (inactive)
- GI50 (SF-539): > 100 µM (inactive)
- GI50 (OVCAR-3): > 100 µM (inactive)
- GI50 (SW-620): 11.1 µM (inactive)
- GI50 (ACHN): > 100 µM (inactive)
- GI50 (NCI-H226): > 100 µM (inactive)
- GI50 (HT-29): > 100 µM (inactive)
- GI50 (SNB-75): > 100 µM (inactive)
- GI50 (DMS-273): > 100 µM (inactive)
- GI50 (SK-MEL-28): > 100 µM (inactive)
- GI50 (CCRF-CEM): > 100 µM (inactive)
- GI50 (SNB-19): > 100 µM (inactive)
- GI50 (SNB-78): > 100 µM (inactive)
- GI50 (DLD-1): 74.6 µM (inactive)
- GI50 (RXF 631): > 100 µM (inactive)
- GI50 (KM12): > 100 µM (inactive)
- GI50 (HCT-116): 83.9 µM (inactive)
- GI50 (OVCAR-8): > 100 µM (inactive)
- GI50 (786-0): > 100 µM (inactive)
- GI50 (LOX IMVI): > 100 µM (inactive)
- GI50 (HCT-15): > 100 µM
- GI50 (A498): > 100 µM (inactive)
- GI50 (HOP-18): > 100 µM (inactive)
- GI50 (UACC-62): > 100 µM (inactive)
- GI50 (K562): > 100 µM (inactive)
- GI50 (SF-295): > 100 µM (inactive)
- GI50 (OVCAR-4): > 100 µM (inactive)
- GI50 (HOP-62): > 100 µM (inactive)
- GI50 (A549): > 100 µM (inactive)
- GI50 (MOLT-4): > 100 µM (inactive)
- GI50 (HOP-92): > 100 µM (inactive)
- GI50 (IGROV-1): > 100 µM (inactive)
- GI50 (SN12C): > 100 µM (inactive)
- GI50 (Malme-3M): > 100 µM (inactive)
- GI50 (SF-268): > 100 µM (inactive)
- GI50 (OVCAR-5): > 100 µM (inactive)
- GI50 (M14): > 100 µM (inactive)
- GI50 (RXF 393): > 100 µM (inactive)
- GI50 (HCC 2998): > 100 µM (inactive)
- GI50 (UACC-257): > 100 µM (inactive)
- GI50 (TK-10): > 100 µM (inactive)
- GI50 (CAKI-1): 35.2 µM (inactive)
- GI50 (NCI-H460): > 100 µM (inactive)
- GI50 (NCI-H522): > 100 µM (inactive)
- GI50 (SK-OV-3): > 100 µM (inactive)
- GI50 (UO-31): > 100 µM (inactive)
- GI50 (DMS-114): > 100 µM (inactive)
- GI50 (HL-60): 21.1 µM (inactive)

SMILES: C#CCC1(C(=O)OCC)C(=O)c2ccccc2N(C)C1=O (configuration not stated)
- GI50 (KM-20L2): > 100 µM (inactive)
- GI50 (M19-MEL): > 100 µM (inactive)
- GI50 (XF498): 26.7 µM (inactive)
- GI50 (EKVX): > 100 µM (inactive)
- GI50 (NCI-H23): 14.7 µM (inactive)
- GI50 (SK-MEL-5): 70.3 µM (inactive)
- GI50 (COLO 205): > 100 µM (inactive)
- GI50 (SK-MEL-2): > 100 µM (inactive)
- GI50 (LXFL 529): > 100 µM (inactive)
- GI50 (RPMI-8226): 68.4 µM (inactive)
- GI50 (U-251): > 100 µM (inactive)
- GI50 (SF-539): > 100 µM (inactive)
- GI50 (OVCAR-3): > 100 µM (inactive)
- GI50 (SW-620): > 100 µM (inactive)
- GI50 (ACHN): 93.5 µM (inactive)
- GI50 (NCI-H226): 62.5 µM (inactive)
- GI50 (HT-29): > 100 µM (inactive)
- GI50 (SNB-75): 16.6 µM (inactive)
- GI50 (DMS-273): > 100 µM (inactive)
- GI50 (SK-MEL-28): > 100 µM (inactive)
- GI50 (CCRF-CEM): > 100 µM (inactive)
- GI50 (SNB-19): 45.4 µM (inactive)
- GI50 (SNB-78): > 100 µM (inactive)
- GI50 (DLD-1): > 100 µM (inactive)
- GI50 (RXF 631): > 100 µM (inactive)
- GI50 (OVCAR-8): > 100 µM (inactive)
- GI50 (LOX IMVI): > 100 µM (inactive)
- GI50 (HCT-15): > 100 µM
- GI50 (A498): 67.5 µM (inactive)
- GI50 (HOP-18): > 100 µM (inactive)
- GI50 (UACC-62): > 100 µM (inactive)
- GI50 (K562): 91.8 µM (inactive)
- GI50 (SF-295): > 100 µM (inactive)
- GI50 (MOLT-4): 45.2 µM (inactive)
- GI50 (HOP-92): 36.6 µM (inactive)
- GI50 (IGROV-1): > 100 µM (inactive)
- GI50 (SN12C): 67.9 µM (inactive)
- GI50 (Malme-3M): > 100 µM (inactive)
- GI50 (SF-268): 58.7 µM (inactive)
- GI50 (M14): > 100 µM (inactive)
- GI50 (TK-10): > 100 µM (inactive)
- GI50 (CAKI-1): 35.6 µM (inactive)
- GI50 (NCI-H460): > 100 µM (inactive)
- GI50 (NCI-H522): 12.1 µM (inactive)
- GI50 (SK-OV-3): > 100 µM (inactive)
- GI50 (UO-31): 30.8 µM (inactive)
- GI50 (DMS-114): > 100 µM (inactive)
- GI50 (HL-60): 60.1 µM (inactive)

Reference: ChEMBL document CHEMBL1201862, “PubChem BioAssay data set” (2004)
